# From patent US11945836B2, “Compositions and methods for treating CNS disorders” (Sage Therapeutics, Inc., priority 2014, dated 2024)
# Target: rat brain cortical membranes ([35S]-TBPS binding)
# Test: Steroid inhibition of [35S]-TBPS binding (radioligand displacement)
# Conditions: 3 nM [35S]-TBPS, in the presence of 5 μM GABA
# Procedure: Steroid Inhibition of TBPS Binding
# TBPS binding assays using rat brain cortical membranes in the presence of 5 μM GABA has been described (Gee et al, J. Pharmacol. Exp. Ther. 1987, 241, 346-353; Hawkinson et al, Mol. Pharmacol. 1994, 46, 977-985; Lewin, A. H et al., Mol. Pharmacol. 1989, 35, 189-194).
# Briefly, cortices are rapidly removed following decapitation of carbon dioxide-anesthetized Sprague-Dawley rats (200-250 g). The cortices are homogenized in 10 volumes of ice-cold 0.32 M sucrose using a glass/teflon homogenizer and centrifuged at 1500×g for 10 min at 4° C. The resultant supernatants are centrifuged at 10,000×g for 20 min at 4° C. to obtain the P2 pellets. The P2 pellets are resuspended in 200 mM NaCl/50 mM Na—K phosphate pH 7.4 buffer and centrifuged at 10,000×g for 10 min at 4° C. This washing procedure is repeated twice and the pellets are resuspended in 10 volumes of buffer. Aliquots (100 uL) of the membrane suspensions are incubated with 3 nM [^35S]-TBPS and 5 μL aliquots of test drug dissolved in dimethyl sulfoxide (DMSO) (final 0.5%) in the presence of 5 μM GABA. The incubation is brought to a final volume of 1.0 mL with buffer. […] Following a 90 min incubation at room temp, the assays are terminated by filtration through glass fiber filters (Schleicher and Schuell No. 32) using a cell harvester (Brandel) and rinsed three times with ice-cold buffer. Filter bound radioactivity is measured by liquid scintillation spectrometry. Non-linear curve fitting of the overall data for each drug averaged for each concentration is done using Prism (GraphPad). […] The concentration of test compound producing 50% inhibition (IC50) of specific binding and the maximal extent of inhibition (Imax) are determined for the individual experiments with the same model used for the overall data and then the means±SEMs of the individual experiments are calculated.
# Various compounds are or can be screened to determine their potential as modulators of [^35S]-TBPS binding in vitro. These assays are or can be performed in accordance with the above discussed procedures.
row,SMILES,IC50
1,COc1cc(OC)cc(C(=O)[C@H]2CC[C@H]3[C@@H]4CC[C@H]5C[C@](C)(O)CC[C@]5(C)[C@H]4CC[C@]23C)c1 [Compound 13],> 0.1 µM
2,Cn1cc(C(=O)[C@H]2CC[C@H]3[C@@H]4CC[C@@H]5C[C@](C)(O)CC[C@@H]5[C@H]4CC[C@]23C)nn1 [Compound 100],> 0.1 µM
3,COc1ccc(C(=O)[C@H]2CC[C@H]3[C@@H]4CC[C@@H]5C[C@](C)(O)CC[C@]5(C)[C@H]4CC[C@]23C)cc1 [Compound 61],> 0.1 µM
4,COc1ccc(C(=O)[C@H]2CC[C@H]3[C@@H]4CC[C@H]5C[C@](C)(O)CC[C@]5(C)[C@H]4CC[C@]23C)c(C)c1 [Compound 132],> 0.1 µM
5,C[C@@]1(O)CC[C@H]2[C@H](CC[C@@H]3[C@@H]2CC[C@]2(C)[C@@H](C(=O)c4coc5ccccc45)CC[C@@H]32)C1 [Compound 12],0.02 to 0.05 µM
6,Cc1ccc(C(=O)[C@H]2CC[C@H]3[C@@H]4CC[C@@H]5C[C@](C)(O)CC[C@@H]5[C@H]4CC[C@]23C)cc1 [Compound 86],0.02 to 0.05 µM
7,C[C@@]1(O)CC[C@H]2[C@H](CC[C@@H]3[C@@H]2CC[C@]2(C)[C@@H](C(=O)c4nccs4)CC[C@@H]32)C1 [Compound 2],> 0.1 µM
8,CN(C)c1ccc(C(=O)[C@H]2CC[C@H]3[C@@H]4CC[C@@H]5C[C@](C)(O)CC[C@]5(C)[C@H]4CC[C@]23C)cc1 [Compound 40],0.02 to 0.05 µM
9,C[C@@]1(O)CC[C@H]2[C@H](CC[C@@H]3[C@@H]2CC[C@]2(C)[C@@H](C(=O)c4ccc5c(c4)OCO5)CC[C@@H]32)C1 [Compound 35],< 0.02 µM
10,C[C@@]1(O)CC[C@@]2(C)[C@H](CC[C@@H]3[C@@H]2CC[C@]2(C)[C@@H](C(=O)c4ccccc4F)CC[C@@H]32)C1 [Compound 84],> 0.1 µM
11,Cc1cc(C)cc(C(=O)[C@H]2CC[C@H]3[C@@H]4CC[C@@H]5C[C@](C)(O)CC[C@@H]5[C@H]4CC[C@]23C)c1 [Compound 16],< 0.02 µM
12,COc1ccc(C(=O)[C@H]2CC[C@H]3[C@@H]4CC[C@H]5C[C@](C)(O)CC[C@]5(C)[C@H]4CC[C@]23C)cc1 [Compound 76],> 0.1 µM
13,C[C@@]1(O)CC[C@@]2(C)[C@H](CC[C@@H]3[C@@H]2CC[C@]2(C)[C@@H](C(=O)c4ccccc4)CC[C@@H]32)C1 [Compound 28],0.02 to 0.05 µM
14,C[C@@]1(O)CC[C@@]2(C)[C@H](CC[C@@H]3[C@@H]2CC[C@]2(C)[C@@H](C(=O)c4cccc(F)c4)CC[C@@H]32)C1 [Compound 83],0.02 to 0.05 µM
15,C[C@@]1(O)CC[C@@]2(C)[C@H](CC[C@@H]3[C@@H]2CC[C@]2(C)[C@@H](C(=O)c4ccc5ccccc5c4)CC[C@@H]32)C1 [Compound 18],0.05 to 0.1 µM
16,Cc1ccccc1C(=O)[C@H]1CC[C@H]2[C@@H]3CC[C@@H]4C[C@](C)(O)CC[C@@H]4[C@H]3CC[C@]12C [Compound 64],> 0.1 µM
17,Cc1ccc(C(=O)[C@H]2CC[C@H]3[C@@H]4CC[C@@H]5C[C@](C)(O)CC[C@]5(C)[C@H]4CC[C@]23C)cc1C [Compound 17],0.05 to 0.1 µM
18,C[C@@]1(O)CC[C@@]2(C)[C@@H](CC[C@@H]3[C@@H]2CC[C@]2(C)[C@@H](C(=O)c4ccc5ccccc5c4)CC[C@@H]32)C1 [Compound 14],0.05 to 0.1 µM
19,COC[C@]12CC[C@@](C)(O)C[C@@H]1CC[C@H]1[C@@H]3CC[C@H](C(=O)c4ccc(OC(F)(F)F)cc4)[C@@]3(C)CC[C@@H]12 [Compound 102],0.05 to 0.1 µM
20,CCc1ccc(C(=O)[C@H]2CC[C@H]3[C@@H]4CC[C@H]5C[C@](C)(O)CC[C@]5(C)[C@H]4CC[C@]23C)cc1 [Compound 134],> 0.1 µM
21,Cc1cccc(C(=O)[C@H]2CC[C@H]3[C@@H]4CC[C@@H]5C[C@](C)(O)CC[C@]5(C)[C@H]4CC[C@]23C)c1 [Compound 73],0.05 to 0.1 µM
22,COc1cccc(C(=O)[C@H]2CC[C@H]3[C@@H]4CC[C@H]5C[C@](C)(O)CC[C@@H]5[C@H]4CC[C@]23C)c1 [Compound 71],> 0.1 µM
23,COC[C@]12CC[C@@](C)(O)C[C@@H]1CC[C@H]1[C@@H]3CC[C@H](C(=O)c4ccccn4)[C@@]3(C)CC[C@@H]12 [Compound 115],> 0.1 µM
24,CCc1ccc(C(=O)[C@H]2CC[C@H]3[C@@H]4CC[C@@H]5C[C@](C)(O)CC[C@@H]5[C@H]4CC[C@]23C)cc1 [Compound 42],< 0.02 µM
25,C[C@@]1(O)CC[C@H]2[C@H](CC[C@@H]3[C@@H]2CC[C@]2(C)[C@@H](C(=O)c4cnc[nH]4)CC[C@@H]32)C1 [Compound 88],> 0.1 µM

row,SMILES,IC50
1,C[C@@]1(O)CC[C@H]2[C@H](CC[C@@H]3[C@@H]2CC[C@]2(C)[C@@H](C(=O)c4ccc5ccccc5c4)CC[C@@H]32)C1 [Compound 19],0.05 to 0.1 µM
2,C[C@@]1(O)CC[C@H]2[C@H](CC[C@@H]3[C@@H]2CC[C@]2(C)[C@@H](C(=O)c4ccc(F)cc4)CC[C@@H]32)C1 [Compound 55],0.02 to 0.05 µM
3,COC[C@]12CC[C@@](C)(O)C[C@@H]1CC[C@H]1[C@@H]3CC[C@H](C(=O)c4ccc(C)cc4)[C@@]3(C)CC[C@@H]12 [Compound 92],> 0.1 µM
4,C[C@@]1(O)CC[C@H]2[C@H](CC[C@@H]3[C@@H]2CC[C@]2(C)[C@@H](C(=O)c4cc5ccccc5o4)CC[C@@H]32)C1 [Compound 5],0.02 to 0.05 µM
5,COc1ccccc1C(=O)[C@H]1CC[C@H]2[C@@H]3CC[C@H]4C[C@](C)(O)CC[C@]4(C)[C@H]3CC[C@]12C [Compound 78],> 0.1 µM
6,C[C@@]1(O)CC[C@@]2(C)[C@H](CC[C@@H]3[C@@H]2CC[C@]2(C)[C@@H](C(=O)c4ccc(-c5ccccc5)cc4)CC[C@@H]32)C1 [Compound 22],0.05 to 0.1 µM
7,C[C@@]1(O)CC[C@@]2(C)[C@H](CC[C@@H]3[C@@H]2CC[C@]2(C)[C@@H](C(=O)c4ccc5c(c4)OCO5)CC[C@@H]32)C1 [Compound 24],< 0.02 µM
8,C[C@@]1(O)CC[C@@]2(C)[C@@H](CC[C@@H]3[C@@H]2CC[C@]2(C)[C@@H](C(=O)c4ccc(OC(F)(F)F)cc4)CC[C@@H]32)C1 [Compound 108],> 0.1 µM
9,Cc1cc(C(=O)[C@H]2CC[C@H]3[C@@H]4CC[C@H]5C[C@](C)(O)CC[C@]5(C)[C@H]4CC[C@]23C)ccc1F [Compound 38],0.05 to 0.1 µM
10,C[C@@]1(O)CC[C@@]2(C)[C@@H](CC[C@@H]3[C@@H]2CC[C@]2(C)[C@@H](C(=O)c4ccccc4F)CC[C@@H]32)C1 [Compound 80],> 0.1 µM
11,COc1ccc(C(=O)[C@H]2CC[C@H]3[C@@H]4CC[C@@H]5C[C@](C)(O)CC[C@@H]5[C@H]4CC[C@]23C)c(C)c1 [Compound 43],0.02 to 0.05 µM
12,C[C@@]1(O)CC[C@@]2(C)[C@@H](CC[C@@H]3[C@@H]2CC[C@]2(C)[C@@H](C(=O)c4cccnc4)CC[C@@H]32)C1 [Compound 125],0.02 to 0.05 µM
13,Cc1cc(C(=O)[C@H]2CC[C@H]3[C@@H]4CC[C@@H]5C[C@](C)(O)CC[C@]5(C)[C@H]4CC[C@]23C)ccc1F [Compound 137],0.02 to 0.05 µM
14,COC[C@]12CC[C@@](C)(O)C[C@@H]1CC[C@H]1[C@@H]3CC[C@H](C(=O)c4ccccc4-c4ccccc4)[C@@]3(C)CC[C@@H]12 [Compound 91],> 0.1 µM
15,CCc1ccc(C(=O)[C@H]2CC[C@H]3[C@@H]4CC[C@H]5C[C@](C)(O)CC[C@]5(COC)[C@H]4CC[C@]23C)cc1 [Compound 104],> 0.1 µM
16,COc1ccc2cc(C(=O)[C@H]3CC[C@H]4[C@@H]5CC[C@H]6C[C@](C)(O)CC[C@]6(C)[C@H]5CC[C@]34C)ccc2c1 [Compound 128],> 0.1 µM
17,COC[C@]12CC[C@@](C)(O)C[C@@H]1CC[C@H]1[C@@H]3CC[C@H](C(=O)c4ccc(N(C)C)cc4)[C@@]3(C)CC[C@@H]12 [Compound 109],> 0.1 µM
18,Cc1ccc(C(=O)[C@H]2CC[C@H]3[C@@H]4CC[C@H]5C[C@](C)(O)CC[C@]5(C)[C@H]4CC[C@]23C)cc1 [Compound 75],> 0.1 µM
19,COc1ccccc1C(=O)[C@H]1CC[C@H]2[C@@H]3CC[C@@H]4C[C@](C)(O)CC[C@]4(C)[C@H]3CC[C@]12C [Compound 53],> 0.1 µM
20,COC[C@]12CC[C@@](C)(O)C[C@@H]1CC[C@H]1[C@@H]3CC[C@H](C(=O)c4cccc(Cl)c4)[C@@]3(C)CC[C@@H]12 [Compound 110],0.05 to 0.1 µM
21,C[C@@]1(O)CC[C@@]2(C)[C@@H](CC[C@@H]3[C@@H]2CC[C@]2(C)[C@@H](C(=O)c4cc(F)cc(F)c4)CC[C@@H]32)C1 [Compound 37],0.05 to 0.1 µM
22,COC[C@]12CC[C@@](C)(O)C[C@@H]1CC[C@H]1[C@@H]3CC[C@H](C(=O)c4cccc(C)c4)[C@@]3(C)CC[C@@H]12 [Compound 103],> 0.1 µM
23,Cn1nccc1C(=O)[C@H]1CC[C@H]2[C@@H]3CC[C@@H]4C[C@](C)(O)CC[C@@H]4[C@H]3CC[C@]12C [Compound 9],0.02 to 0.05 µM
24,COc1ccc(C(=O)[C@H]2CC[C@H]3[C@@H]4CC[C@H]5C[C@](C)(O)CC[C@@H]5[C@H]4CC[C@]23C)cc1 [Compound 87],> 0.1 µM
25,Cn1c(C(=O)[C@H]2CC[C@H]3[C@@H]4CC[C@@H]5C[C@](C)(O)CC[C@@H]5[C@H]4CC[C@]23C)nc2ccccc21 [Compound 6],> 0.1 µM
